PubChem BioAssay (NCI)
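Dose response: 5 concentrations. Exposure: 48 h. Format: 96-well plates. Endpoint: linear interpolation; highest concentration if not reached. The concentration for 50% growth inhibition is given as GI50. TGI: concentration producing complete growth inhibition.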

Key:
Experiment in all cases: NCI-60 cell line screen, 48 h
ACHN renal = test system: ACHN renal
EKVX NSCLC = test system: EKVX NSCLC
HCC-2998 colon = test system: HCC-2998 colon
HL-60(TB) leukemia = test system: HL-60(TB) leukemia
HOP-92 NSCLC = test system: HOP-92 NSCLC
KM12 colon = test system: KM12 colon
SNB-19 CNS = test system: SNB-19 CNS
SNB-75 CNS = test system: SNB-75 CNS
SW-620 colon = test system: SW-620 colon
PC-3 prostate = test system: PC-3 prostate

Row | Compound | TGI (ACHN renal) | TGI (EKVX NSCLC) | TGI (HCC-2998 colon) | TGI (HL-60(TB) leukemia) | TGI (HOP-92 NSCLC) | TGI (KM12 colon) | TGI (SNB-19 CNS) | TGI (SNB-75 CNS) | TGI (SW-620 colon) | GI50 (ACHN renal) | GI50 (EKVX NSCLC) | GI50 (HL-60(TB) leukemia) | GI50 (KM12 colon) | GI50 (PC-3 prostate) | TGI (PC-3 prostate) | GI50 (SNB-19 CNS) | GI50 (SNB-75 CNS) | GI50 (SW-620 colon) | GI50 (HCC-2998 colon) | GI50 (HOP-92 NSCLC)
1 | CCCCCCCCCCCCCCCC(=O)OCC1OC(n2cc(F)c(=O)[nH]c2=O)C(N)C(O)C1O (configuration not stated) | 33.9 µM | 35.6 µM | 27.8 µM | 37.4 µM | 38.9 µM | 33.3 µM | 39.2 µM | 38.6 µM | 30.4 µM |  |  |  |  |  |  |  |  |  |  | 
2 | O=C(c1ccc(Cl)cc1Cl)C1[C@H]2C(=O)N(c3ccc(Cc4ccc(N5C(=O)[C@@H]6ON(c7ccccc7)C(C(=O)c7ccc(Cl)cc7Cl)[C@@H]6C5=O)cc4)cc3)C(=O)[C@H]2ON1c1ccccc1 (some centres not stated) | > 50 µM |  | > 50 µM | > 50 µM |  | > 50 µM | > 50 µM | > 50 µM | > 50 µM |  |  |  |  |  |  |  |  |  |  | 
3 | OC1(C23CC4CC(CC(C4)C2)C3)CSCC1(O)C12CC3CC(CC(C3)C1)C2 (configuration not stated) |  | > 100 µM | > 100 µM | > 10 µM | > 100 µM | > 100 µM | > 100 µM | > 100 µM | > 100 µM |  |  |  |  |  |  |  |  |  |  | 
4 | CCOC(C[C@H](O[Si](C)(C)C(C)(C)C)[C@H]1COC(=S)S1)OCC | > 100 µM | > 100 µM | > 100 µM | > 100 µM |  | > 100 µM | > 100 µM |  | > 100 µM |  |  |  |  |  |  |  |  |  |  | 
5 | CCCCOC(=O)N1CCN(/[N+]([O-])=N/Oc2ccc([N+](=O)[O-])cc2[N+](=O)[O-])CC1 | 7.19 µM | 23.5 µM |  | > 100 µM |  | 14.5 µM | 36.8 µM | 37.9 µM | > 100 µM | 2530 nM | 8.01 µM | 6.85 µM | 3.65 µM | 14 µM | 30.8 µM | 15.1 µM | 21.1 µM | 3.38 µM |  | 
6 | Cc1ccccc1C1OC(=O)c2ccc3ccccc3c21 (configuration not stated) | 28.6 µM | 17.5 µM | 12 µM | 8.01 µM | 49.9 µM | 13.7 µM | > 91.5 µM | 31.3 µM | 21.7 µM |  |  |  |  |  |  |  |  |  |  | 
7 | CC(=O)[CH-]C(=O)c1ccccc1.CC(=O)[CH-]C(=O)c1ccccc1.CC[O-].CC[O-].[Hf+4] | > 100 µM | > 100 µM | > 100 µM | > 100 µM | > 100 µM | > 100 µM | > 100 µM | > 100 µM | > 100 µM | > 100000 nM | 38.2 µM | > 100 µM | > 100 µM |  |  | > 100 µM | > 100 µM | > 100 µM | > 100000 nM | 36.8 µM
8 | CCCCCCC[CH2][Sn]([CH2]CCCCCCC)([O]c1cccc2cccnc12)[O]c1cccc2cccnc12 | 11.1 µM | 7.18 µM | 3.43 µM |  |  | 4.19 µM | 9.31 µM | 9.53 µM | 1.89 µM | 2980 nM | 2.06 µM |  | 1.91 µM |  |  | 2.94 µM | 2.74 µM | 0.391 µM | 1990 nM | 
9 | OC(CCNC12CC3CC(CC(C3)C1)C2)c1ccccc1 (configuration not stated) | > 100 µM | > 100 µM | > 100 µM | > 100 µM | > 100 µM | > 100 µM | > 100 µM | > 100 µM | > 100 µM |  |  |  |  |  |  |  |  |  |  | 
10 | CC1CCC/C1=C(/I)C(=O)c1ccccc1 (configuration not stated) | > 100 µM | > 100 µM | > 100 µM | 70.4 µM |  | > 100 µM | > 100 µM | 85 µM | > 100 µM |  |  |  |  |  | > 100 µM |  |  |  |  | 
11 | CN(C(=O)C12C3C4C1C1C2C3C41C(N)=O)C(C)(C)C (configuration not stated) | > 100 µM | > 100 µM | > 100 µM | > 100 µM | > 100 µM | > 100 µM | > 100 µM | > 100 µM | > 100 µM |  |  |  |  |  |  |  |  |  |  | 
12 | COc1c(O)c2c3c(cc(C)cc3c1C(C)C)OC2 | > 100 µM | > 100 µM | > 100 µM | > 100 µM | > 100 µM | > 100 µM | > 100 µM | > 100 µM | > 100 µM |  |  |  |  |  |  |  |  |  |  | 
13 | Cc1ccc2c(c1)-c1c3c(nn1-c1ccccc1)-c1ccccc1SC3O2 (configuration not stated) | > 100 µM | > 100 µM | > 100 µM | > 100 µM | > 100 µM | > 100 µM |  | > 100 µM | > 100 µM |  |  |  |  |  |  |  |  |  |  | 
14 | NNC(=O)C1CCC(=O)N1S(=O)(=O)c1ccccc1 (configuration not stated) | > 100 µM | > 100 µM | > 100 µM | > 100 µM | > 100 µM | > 100 µM | > 100 µM | > 100 µM | > 100 µM |  |  |  |  |  |  |  |  |  |  | 
15 | CCOc1cc2c(C(=O)CC)c(O)ccc2o1 | > 100 µM | > 100 µM | > 100 µM | 23 µM | > 100 µM | > 100 µM | > 100 µM | > 100 µM | > 100 µM |  |  |  |  |  |  |  |  |  |  | 
16 | c1cncc(C2N3CCCCC3[C@@H]3c4[nH]c5ccccc5c4CCN23)c1 (some centres not stated) | > 100 µM | > 100 µM |  | > 100 µM | > 100 µM |  | > 100 µM | > 100 µM | > 100 µM |  |  |  |  |  |  |  |  |  |  | 
